ChEMBL document CHEMBL5576147, “Development of Brain Penetrant Pyridazine Pantothenate Kinase Activators” (J Med Chem, 2024)

Experiments:
in vitro [1] = assay: in vitro; set-up: dose or concentration left out as unconfirmed; conditions: human, liver microsomes
in vitro [2] = assay: in vitro; set-up: dose or concentration left out as unconfirmed; conditions: mouse, liver microsomes

For `CC(C)c1ccc(CC(=O)N2CCN(c3ccc(C#N)nn3)CC2)cc1`, the CLint scaled at 4 h (in vitro [1]) was 175 mL/min/kg and the CLint scaled at 4 h (in vitro [2]) was 408 mL/min/kg.
